{
  "source": "patent US6096930A",
  "about": "“Herbicidal cyclohexane-1,3-dione derivatives and their preparation process” (Korea Research Institute of Chemical Technology, priority 1994, dated 2000)",
  "experiment_in_all_cases": "Herbicidal activity for paddy test",
  "type_in_all_cases": "in vivo",
  "key": {"ECHOR": {"tested_on": "ECHOR", "details": "for pest or weed control at 2 g/ha: 0.002 kg/ha; for pest or weed control at 8 g/ha: 0.008 kg/ha; for pest or weed control at 31 g/ha: 0.031 kg/ha; for pest or weed control at 125 g/ha: 0.125 kg/ha; for pest or weed control at 500 g/ha: 0.500 kg/ha", "method_in_brief": "(§1)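 Sterilized sandy loam; 115 cm^2 pot; furrow planting; visual % control, 0–100.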"}, "MOOVA": {"tested_on": "MOOVA", "details": "for pest or weed control at 2 g/ha: 0.002 kg/ha; for pest or weed control at 8 g/ha: 0.008 kg/ha; for pest or weed control at 31 g/ha: 0.031 kg/ha; for pest or weed control at 125 g/ha: 0.125 kg/ha; for pest or weed control at 500 g/ha: 0.500 kg/ha", "method_in_brief": "as §1"}, "ORYSA": {"tested_on": "ORYSA", "details": "for plant injury at 2 g/ha: 0.002 kg/ha; for plant injury at 8 g/ha: 0.008 kg/ha; for plant injury at 31 g/ha: 0.031 kg/ha; for plant injury at 125 g/ha: 0.125 kg/ha; for plant injury at 500 g/ha: 0.500 kg/ha", "method_in_brief": "as §1"}, "SAGPY": {"tested_on": "SAGPY", "details": "for pest or weed control at 2 g/ha: 0.002 kg/ha; for pest or weed control at 8 g/ha: 0.008 kg/ha; for pest or weed control at 31 g/ha: 0.031 kg/ha; for pest or weed control at 125 g/ha: 0.125 kg/ha; for pest or weed control at 500 g/ha: 0.500 kg/ha", "method_in_brief": "as §1"}, "SCPJU": {"tested_on": "SCPJU", "details": "for pest or weed control at 2 g/ha: 0.002 kg/ha; for pest or weed control at 8 g/ha: 0.008 kg/ha; for pest or weed control at 31 g/ha: 0.031 kg/ha; for pest or weed control at 125 g/ha: 0.125 kg/ha; for pest or weed control at 500 g/ha: 0.500 kg/ha", "method_in_brief": "as §1"}, "[1]": {"details": "3 Leaf, read-out: Herbicidal activity, ORYSA (3 Leaf)"}, "[2]": {"details": "seed, read-out: Herbicidal activity, ORYSA (seed)"}},
  "note": "Like-named read-outs stand apart in the source and are kept apart here.",
  "data": [
    {"compound": "CCON=C(CC)C1=C(O)CC(c2c(C)c(C)c3c(c2Cl)CC(C)(C)C3)CC1=O", "note": "(stereo not drawn) [Compound 39]", "values": [
      {"measurement": "pest or weed control at 2 g/ha", "setting": "ECHOR", "value": 0, "unit": "%"},
      {"measurement": "pest or weed control at 8 g/ha", "setting": "ECHOR", "value": 80, "unit": "%"},
      {"measurement": "pest or weed control at 31 g/ha", "setting": "ECHOR", "value": 100, "unit": "%"},
      {"measurement": "pest or weed control at 125 g/ha", "setting": "ECHOR", "value": 100, "unit": "%"},
      {"measurement": "pest or weed control at 500 g/ha", "setting": "ECHOR", "value": 100, "unit": "%"},
      {"measurement": "pest or weed control at 2 g/ha", "setting": "MOOVA", "value": 0, "unit": "%"},
      {"measurement": "pest or weed control at 8 g/ha", "setting": "MOOVA", "value": 0, "unit": "%"},
      {"measurement": "pest or weed control at 31 g/ha", "setting": "MOOVA", "value": 0, "unit": "%"},
      {"measurement": "pest or weed control at 125 g/ha", "setting": "MOOVA", "value": 0, "unit": "%"},
      {"measurement": "pest or weed control at 500 g/ha", "setting": "MOOVA", "value": 0, "unit": "%"},
      {"measurement": "plant injury at 2 g/ha", "setting": "ORYSA; [1]", "value": 0, "unit": "%"},
      {"measurement": "plant injury at 8 g/ha", "setting": "ORYSA; [1]", "value": 0, "unit": "%"},
      {"measurement": "plant injury at 31 g/ha", "setting": "ORYSA; [1]", "value": 0, "unit": "%"},
      {"measurement": "plant injury at 125 g/ha", "setting": "ORYSA; [1]", "value": 0, "unit": "%"},
      {"measurement": "plant injury at 500 g/ha", "setting": "ORYSA; [1]", "value": 80, "unit": "%"},
      {"measurement": "plant injury at 2 g/ha", "setting": "ORYSA; [2]", "value": 0, "unit": "%"},
      {"measurement": "plant injury at 8 g/ha", "setting": "ORYSA; [2]", "value": 0, "unit": "%"},
      {"measurement": "plant injury at 31 g/ha", "setting": "ORYSA; [2]", "value": 100, "unit": "%"},
      {"measurement": "plant injury at 125 g/ha", "setting": "ORYSA; [2]", "value": 100, "unit": "%"},
      {"measurement": "plant injury at 500 g/ha", "setting": "ORYSA; [2]", "value": 100, "unit": "%"},
      {"measurement": "pest or weed control at 2 g/ha", "setting": "SAGPY", "value": 0, "unit": "%"},
      {"measurement": "pest or weed control at 8 g/ha", "setting": "SAGPY", "value": 0, "unit": "%"},
      {"measurement": "pest or weed control at 31 g/ha", "setting": "SAGPY", "value": 0, "unit": "%"},
      {"measurement": "pest or weed control at 125 g/ha", "setting": "SAGPY", "value": 0, "unit": "%"},
      {"measurement": "pest or weed control at 500 g/ha", "setting": "SAGPY", "value": 0, "unit": "%"},
      {"measurement": "pest or weed control at 2 g/ha", "setting": "SCPJU", "value": 0, "unit": "%"},
      {"measurement": "pest or weed control at 8 g/ha", "setting": "SCPJU", "value": 0, "unit": "%"},
      {"measurement": "pest or weed control at 31 g/ha", "setting": "SCPJU", "value": 0, "unit": "%"},
      {"measurement": "pest or weed control at 125 g/ha", "setting": "SCPJU", "value": 0, "unit": "%"},
      {"measurement": "pest or weed control at 500 g/ha", "setting": "SCPJU", "value": 0, "unit": "%"}
    ]},
    {"compound": "CCCC(=NOCC=CCl)C1=C(O)CC(c2c(C)c(C)c3c(c2C)CC(C)(C)C3)CC1=O", "note": "(stereo not drawn) [Compound 9]", "values": [
      {"measurement": "pest or weed control at 2 g/ha", "setting": "ECHOR", "value": 0, "unit": "%"},
      {"measurement": "pest or weed control at 8 g/ha", "setting": "ECHOR", "value": 50, "unit": "%"},
      {"measurement": "pest or weed control at 31 g/ha", "setting": "ECHOR", "value": 100, "unit": "%"},
      {"measurement": "pest or weed control at 125 g/ha", "setting": "ECHOR", "value": 100, "unit": "%"},
      {"measurement": "pest or weed control at 500 g/ha", "setting": "ECHOR", "value": 100, "unit": "%"},
      {"measurement": "pest or weed control at 2 g/ha", "setting": "MOOVA", "value": 0, "unit": "%"},
      {"measurement": "pest or weed control at 8 g/ha", "setting": "MOOVA", "value": 0, "unit": "%"},
      {"measurement": "pest or weed control at 31 g/ha", "setting": "MOOVA", "value": 0, "unit": "%"},
      {"measurement": "pest or weed control at 125 g/ha", "setting": "MOOVA", "value": 0, "unit": "%"},
      {"measurement": "pest or weed control at 500 g/ha", "setting": "MOOVA", "value": 0, "unit": "%"},
      {"measurement": "plant injury at 2 g/ha", "setting": "ORYSA; [1]", "value": 0, "unit": "%"},
      {"measurement": "plant injury at 8 g/ha", "setting": "ORYSA; [1]", "value": 0, "unit": "%"},
      {"measurement": "plant injury at 31 g/ha", "setting": "ORYSA; [1]", "value": 0, "unit": "%"},
      {"measurement": "plant injury at 125 g/ha", "setting": "ORYSA; [1]", "value": 0, "unit": "%"},
      {"measurement": "plant injury at 500 g/ha", "setting": "ORYSA; [1]", "value": 0, "unit": "%"},
      {"measurement": "plant injury at 2 g/ha", "setting": "ORYSA; [2]", "value": 0, "unit": "%"},
      {"measurement": "plant injury at 8 g/ha", "setting": "ORYSA; [2]", "value": 0, "unit": "%"},
      {"measurement": "plant injury at 31 g/ha", "setting": "ORYSA; [2]", "value": 0, "unit": "%"},
      {"measurement": "plant injury at 125 g/ha", "setting": "ORYSA; [2]", "value": 70, "unit": "%"},
      {"measurement": "plant injury at 500 g/ha", "setting": "ORYSA; [2]", "value": 100, "unit": "%"},
      {"measurement": "pest or weed control at 2 g/ha", "setting": "SAGPY", "value": 0, "unit": "%"},
      {"measurement": "pest or weed control at 8 g/ha", "setting": "SAGPY", "value": 0, "unit": "%"},
      {"measurement": "pest or weed control at 31 g/ha", "setting": "SAGPY", "value": 0, "unit": "%"},
      {"measurement": "pest or weed control at 125 g/ha", "setting": "SAGPY", "value": 0, "unit": "%"},
      {"measurement": "pest or weed control at 500 g/ha", "setting": "SAGPY", "value": 0, "unit": "%"},
      {"measurement": "pest or weed control at 2 g/ha", "setting": "SCPJU", "value": 0, "unit": "%"},
      {"measurement": "pest or weed control at 8 g/ha", "setting": "SCPJU", "value": 0, "unit": "%"},
      {"measurement": "pest or weed control at 31 g/ha", "setting": "SCPJU", "value": 0, "unit": "%"},
      {"measurement": "pest or weed control at 125 g/ha", "setting": "SCPJU", "value": 0, "unit": "%"},
      {"measurement": "pest or weed control at 500 g/ha", "setting": "SCPJU", "value": 0, "unit": "%"}
    ]}
  ]
}
